Results: ChEMBL document CHEMBL3727365, “Compounds that modulate intracellular calcium” (2012)

Tests used:
[1] = molecular target: ORAI1/STIM1 (Homo sapiens) (UniProt Q96D31+Q13586); assay: Inhibition of recombinant human STIM1/Orai1 expressed in HEK293 cells assessed as inhibition of peak basal signal after 30 mins by fluo4-AM dye-based FLIPR assay; assay type: cell-based
Jurkat = assay: Inhibition of PHA/TPA-induced IL2 release in human Jurkat T cells preincubated for 10 mins followed by PHA/TPA stimulation measured after […] by ELISA; assay type: functional, cell-based

Sequence of ORAI1/STIM1 (Homo sapiens) (Q13586 23-685 partner limits assumed): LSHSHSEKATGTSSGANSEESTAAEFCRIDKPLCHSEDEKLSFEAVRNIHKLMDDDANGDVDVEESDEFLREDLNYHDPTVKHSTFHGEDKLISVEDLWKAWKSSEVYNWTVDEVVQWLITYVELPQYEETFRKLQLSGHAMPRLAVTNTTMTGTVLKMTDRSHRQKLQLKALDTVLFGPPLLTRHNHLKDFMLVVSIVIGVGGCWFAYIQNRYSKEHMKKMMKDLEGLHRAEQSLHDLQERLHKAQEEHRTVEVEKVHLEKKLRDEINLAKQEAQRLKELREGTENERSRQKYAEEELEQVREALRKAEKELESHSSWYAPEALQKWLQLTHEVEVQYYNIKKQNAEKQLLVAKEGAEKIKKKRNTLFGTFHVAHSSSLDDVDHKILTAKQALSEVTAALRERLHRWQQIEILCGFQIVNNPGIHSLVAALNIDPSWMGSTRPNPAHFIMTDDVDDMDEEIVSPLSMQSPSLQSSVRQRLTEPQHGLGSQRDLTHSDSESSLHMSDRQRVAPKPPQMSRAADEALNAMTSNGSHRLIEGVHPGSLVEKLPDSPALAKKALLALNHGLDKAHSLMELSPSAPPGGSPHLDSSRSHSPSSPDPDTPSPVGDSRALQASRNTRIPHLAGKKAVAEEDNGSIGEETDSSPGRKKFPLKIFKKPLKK
Sequence of ORAI1/STIM1 (Homo sapiens) (Q96D31 whole entry): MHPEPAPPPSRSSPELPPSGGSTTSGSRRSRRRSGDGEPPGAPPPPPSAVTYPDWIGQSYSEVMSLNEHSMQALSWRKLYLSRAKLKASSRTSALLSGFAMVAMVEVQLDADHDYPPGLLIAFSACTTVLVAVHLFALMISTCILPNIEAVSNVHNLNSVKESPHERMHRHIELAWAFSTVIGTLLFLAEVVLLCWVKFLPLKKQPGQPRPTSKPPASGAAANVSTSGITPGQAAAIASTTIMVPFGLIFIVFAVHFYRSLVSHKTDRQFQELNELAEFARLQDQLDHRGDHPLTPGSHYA

Efficacy [1] | IC50 (Jurkat) | SMILES
< 50% | – | Cc1ccccc1C(=O)Nc1ncc(-c2cc(C(F)(F)F)nn2C)s1
– | < 50 nM | Cn1nc(-c2nccs2)cc1-c1ccc(C(=O)Nc2ccccc2F)s1
– | < 50 nM | Cn1nc(-c2ccccc2F)cc1-c1ccc(C(=O)Nc2ccncc2F)s1
– | < 50 nM | Cn1nc(-c2ccco2)cc1-c1ccc(C(=O)Nc2c(F)cncc2F)s1
– | 50 nM | Cn1nc(-c2ccco2)cc1-c1ccc(C(=O)Nc2ccccc2Cl)s1
– | < 50 nM | Cn1nc(-c2nccs2)cc1-c1ccc(C(=O)Nc2ncc(Cl)cc2F)s1
– | < 50 nM | Cn1nc(-c2nccs2)cc1-c1ccc(C(=O)Nc2ccncc2F)s1
– | < 50 nM | Cn1nc(-c2ccccc2F)cc1-c1ccc(C(=O)Nc2c(F)cncc2F)s1
– | 50 nM | Cn1nc(-c2ccccc2F)cc1-c1ccc(C(=O)Nc2ncccc2F)s1
– | > 100 nM | Cn1nc(-c2ccco2)cc1-c1ccc(C(=O)Nc2ncccc2F)s1
– | 50 nM | Cc1nc2cc(Cl)c(-c3cnc(NC(=O)c4ccccc4Cl)s3)cc2o1
– | < 50 nM | Cn1nc(-c2ccco2)cc1-c1ccc(C(=O)Nc2ncc(Cl)cc2F)s1
– | > 100 nM | Cn1nc(-c2ccccc2)cc1-c1ccc(C(=O)Nc2ccccc2F)s1
– | < 50 nM | Cn1nc(C(F)(F)F)cc1-c1cnc(NC(=O)c2ccccc2F)s1
< 50% | – | Cn1nc(C(F)(F)F)cc1-c1ccc(NC(=O)c2ccncc2F)s1
– | < 50 nM | Cn1nc(-c2ccco2)cc1-c1ccc(C(=O)Nc2ccncc2F)s1
– | < 50 nM | Cn1nc(-c2ccccc2F)cc1-c1ccc(C(=O)Nc2ncc(Cl)cc2F)s1
– | 50 nM | Cn1nc(-c2ccccc2)cc1-c1ccc(C(=O)Nc2ccncc2F)s1
